Experimental data: PubChem BioAssay (NCI)
Several values for one entry are separate records, joined by “and”; a condition that tells them apart may be missing. Equal entries are not always repeated.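 Test compounds were applied to cells in 96-well plates for 48 hours at 5 doses. At the GI50, growth is halved. TGI is the concentration that stops growth completely.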 *1 amine or outer side, *2 acyl side, *3 side chain or, on linkers, in order; H or OH if unused. Where a SMILES comes first, the peptide text is derived from it. Bridges are numbered along the chain shown (N, C = ends). [ ]: non-standard residue; d: D form. The star is where a group is joined. ξ: configuration not given here. Phe(3,5-F2) = N[C@@H](Cc1cc(F)cc(F)c1)C(=O)O; ξThr(3S) = C[C@H](O[*:3])C(N[*:1])C(=O)[*:2]; Pro(4R-Me) = C[C@H]1CN[C@H](C(=O)O)C1; Pip = O=C(O)[C@@H]1CCCCN1; X1 = Cc1ccc(N*)c(F)c1; CO = O=C([*:1])[*:2]

Test system: MDA-MB-468 breast
Experiment: inhibition of tumour cell growth, NCI panel, 48 h

Compound | GI50 | TGI
CN1CCC2(CC1)C(=O)Nc1cc(NC(=O)c3ccc4c(c3)C[C@@H]3C(C)(C)[C@H](O)[C@H](F)C[C@@]3(C)O4)ccc12 | 0.74 µM | 11.7 µM
CC(C)Cn1cnc2c(N)nc3ccccc3c21 | 12.4 µM | > 62.1 µM
Nc1nc(N)c2cc(S(=O)(=O)c3cccc(C(F)(F)F)c3)ccc2n1 | 2.34 µM | > 100 µM
CCn1c(-c2nonc2N)nc2cnc(Oc3cccc(NC(=O)c4ccc(OCCN5CCOCC5)cc4)c3)cc21 | 1.13 µM | 19.9 µM
Clc1ccc2c(NC3CCC(NC4CCCCC4)CC3)ccnc2c1 (configuration not stated) | 1.68 µM | 8.1 µM
CCCCCCCCCCCC(c1ccccc1)[N+](C)(C)C (configuration not stated) | 0.257 µM | 1.35 µM
Cc1cc(NC(=O)NCCCOc2ccc(N3C(N)=NC(N)=NC3(C)C)cc2Cl)ccc1S(=O)(=O)F | 0.638 µM | 19.7 µM
CCOc1ccc2nc3cc(N)ccc3c(N)c2c1 | 0.268 µM and 0.135 µM | 0.972 µM and 0.493 µM
CN1CCN(c2ccc3nc(-c4[nH]ncc4Nc4ncnc5[nH]ccc45)[nH]c3c2)CC1 | 0.197 µM | 0.487 µM
COc1ccc(-c2nc(-c3nc4cc(Cl)c(Cl)cc4[nH]3)c3ccccn23)cc1 | 5.04 µM | > 100 µM
Cc1ccc(-c2nnc(SCc3ccc(O)c4ncccc34)o2)cc1 | 1.88 µM | > 100 µM
CC(=O)Nc1ccc(CC[C@H]2CCC/C=C/[C@@H]3C[C@H](O)C[C@H]3[C@H](O)/C=C/C(=O)O2)cc1 | 0.0213 µM | 0.0503 µM
CCCCCCCCCCCC1=NC(C)(C)CN1C(C)C | 1.66 µM | 3.8 µM
Cc1ccc(NC(=O)c2ccoc2)cc1-c1ccc(C(=O)NCC2CC2)cc1 | 6.37 µM | > 25 µM
O=C(Nc1ccccc1/C=C/c1n[nH]c2ccccc12)c1ccccc1 | 6.35 µM | 20.4 µM
CN1CCN(c2cc(F)c(NC3=C(Cl)C(=O)c4ncccc4C3=O)c(F)c2)CC1 | 1.01 µM | 2.61 µM
CCCN1CCC(Oc2cc(Nc3nc(Nc4cccc(F)c4C(N)=O)c4cc[nH]c4n3)c(OC)cc2Cl)CC1 | 0.537 µM | 1.35 µM
CN(C)CCN1C(=O)c2cccc3cc(N)cc(c23)C1=O | 2.95 µM | 11.9 µM
COc1ccc(-c2nn3ncccc3c2-c2ccnc(Nc3ccc(F)c(F)c3)n2)cc1 | 6 µM | > 18.9 µM
Cc1ccc(NC(=O)N[C@@H](Cc2cc(F)cc(F)c2)C(=O)NC2C(=O)N3CCC[C@H]3C(=O)N3CCCC[C@H]3C(=O)N[C@@H](C)C(=O)N3C[C@H](C)C[C@H]3C(=O)O[C@H]2C)c(F)c1 (stereo partly drawn) ({X1-CO}-[Phe(3,5-F2)][ξThr(3S)]P[Pip]A[Pro(4R-Me)]; ester 2-C) | 0.174 µM and 0.0874 µM | 

Compound | GI50 | TGI
COc1cc(-c2csc(NC(=O)Nc3ccc(Cl)cc3)n2)cc(OC)c1OC | 2.96 µM | 9.35 µM
CCN(Cc1ccccc1)c1ccc(/C=C2\COc3ccccc3C2=O)cc1 | 438 µM | > 1000 µM
Clc1ccc2c(NCCCCNc3nc(N4CCOCC4)nc4ccccc34)ccnc2c1 | 2.82 µM | 7.97 µM
COCCn1c(Nc2ccc(C(=O)NO)cc2)nc2ccccc21 | 3.43 µM | 16 µM
CC[C@@H]1C(=O)N(C)c2cnc(Nc3ccc(C(=O)NC4CCC(N5CCN(CC6CC6)CC5)CC4)cc3OC)nc2N1C(C)C (some centres not stated) | 0.00331 µM and < 0.01 µM | 0.121 µM
N#CSc1c[nH]c2ccc(/C=C/C(=O)/C=C(O)/C=C/c3ccc4[nH]cc(SC#N)c4c3)cc12 | 2.06 µM | 6.67 µM
C#C[C@]1(O)CC[C@H]2[C@@H]3CC=C4c5sc(Nc6cc(C)cc(C)c6)nc5CC[C@]4(C)[C@H]3CC[C@@]21C | 2.54 µM | 8.69 µM
Cc1[nH]nc2ncc(C#Cc3cncc(C(=O)Nc4ccc(CN5CCN(C)CC5)c(C(F)(F)F)c4)c3)cc12 | 0.141 µM | 0.911 µM
O=C(O)CN(CCN(CC(=O)O)CC(=O)O)CCN(CC(=O)O)CC(=O)O | 4.03 µM | 16.4 µM
C=CC(=O)N1CCN([C@@H](CC2CC2)c2ccc([C@H](C)Nc3ncc4c(n3)N(CC)C(=O)OC4)cc2)CC1 | 3.3 µM | 13.8 µM
Cc1ccc(/C=C/C(=O)c2ccc(F)cc2)s1 | 2.97 µM | 16.4 µM
C=CCn1c(SCC(=O)Nc2ccc(C(=O)/C=C/c3cc(OC)c(OC)c(OC)c3)cc2)nnc1-c1cc(OC)c(OC)c(OC)c1 | 2.45 µM | 6.66 µM
Clc1cccc(-c2cc(-c3ccc4c(c3)OCCO4)[nH]n2)c1 | 10.9 µM | 57.8 µM
C=C(C)[C@@H]1CC[C@]2(C(=O)OC)CC[C@]3(C)[C@H](CC[C@@H]4[C@@](C)(CCc5nn[nH]n5)[C@H](C(=C)C)CC[C@]43C)[C@@H]12 | 13.8 µM | 36.4 µM
c1ccc2[nH]c(-c3ccc(Nc4nc(N5CCCC5)nc5[nH]ncc45)cc3)nc2c1 | 0.277 µM | 1.21 µM
CN1CCN(CCCOC(=O)c2c3c(n4ccccc24)C(=O)c2ncccc2C3=O)CC1 | 1.88 µM | 20.6 µM
COc1ccc(C2c3cc4c(cc3OC(N3CCOCC3)C2C)OCO4)cc1OC (configuration not stated) | 7.56 µM | > 100 µM
COc1cccc2c1C(=O)c1c(O)c3c(c(O)c1C2=O)C[C@@](O)(C(=O)CO)C[C@@H]3OC1CC(N2CCOCC2)C(O)C(C)O1 (some centres not stated) | 0.0369 µM | 0.216 µM
CCCCCOC(=O)c1c(C)[nH]c(/C=C2\N=C(c3ccc[nH]3)C=C2OC)c1C | 0.0546 µM | 1.32 µM
